Results as given in patent US10144715B2, “Piperazine derivatives as liver X receptor modulators” (priority 2014, dated 2018).
Where two headings read alike, the source gives them in different places.

Legend:
[1] = target: T1, Gal4 DNA binding domain fused to the LBD of LXRα in HEK293 cells (Homo sapiens (Human), UniProt Q13133); test: LXR luciferase transcriptional reporter gene assay, agonist mode, LXRα; type: cell-based; details: for EC50: read-out: Cell LXRα EC50
[2] = target: T2, Gal4 DNA binding domain fused to the LBD of LXRβ in HEK293 cells (Homo sapiens (Human), UniProt P55055); test: cell-based; type: cell-based
[3] = target: T3, LXR β LBD protein (Homo sapiens (Human), UniProt P55055); test: biochemical; type: binding
Target sequence in this assay (P55055 222-460 limits assumed): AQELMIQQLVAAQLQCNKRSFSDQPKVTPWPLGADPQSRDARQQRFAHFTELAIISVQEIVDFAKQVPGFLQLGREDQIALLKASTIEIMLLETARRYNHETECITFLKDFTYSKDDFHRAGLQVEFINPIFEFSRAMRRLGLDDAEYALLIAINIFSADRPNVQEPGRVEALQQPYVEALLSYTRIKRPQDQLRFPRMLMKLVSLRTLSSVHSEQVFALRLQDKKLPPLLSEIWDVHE

[4] = target: LXR α LBD protein (Homo sapiens (Human), UniProt Q13133); test: Human LXRα coactivator recruitment FRET assay, agonist mode; type: biochemical; details: agonist mode
Outline: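 LXRα- or LXRβ-LBD at 10 nM (2×) mixed with compound in DMSO, then fluorescein-SRC2-3 peptide 200 nM and Tb-anti-GST antibody 20 nM (4×) added; 2 h at rt. Time-resolved FRET read, 100 µs delay, 200 µs window; EC50 from four-parameter fit of percent control.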

[5] = target: T2, Gal4 DNA binding domain fused to the LBD of LXRβ in HEK293 cells; test: cell-based
[6] = target: T1, Gal4 DNA binding domain fused to the LBD of LXRα in HEK293 cells; test: LXR luciferase transcriptional reporter gene assay, antagonist mode (200 nM T0901317), LXRα; type: cell-based; details: for IC50: read-out: Cell LXRα IC50
[7] = target: T3, LXR β LBD protein; test: biochemical; type: biochemical; details: for EC50: read-out: FRET LXRβ EC50
Target sequence in this assay (P55055 222-460): as the sequence (P55055 222-460 limits assumed) above

[8] = antagonist mode, 200 nM T0901317, HEK293 reporter gene assay
[9] = antagonist mode, 200 nM T0901317, HEK293 reporter gene assay, read-out: Cell LXRβ IC50
[10] = agonist mode, read-out: Cell LXRβ EC50

T2 sequence (P55055 222-460 limits assumed): as above
T1 sequence (Q13133 209-447): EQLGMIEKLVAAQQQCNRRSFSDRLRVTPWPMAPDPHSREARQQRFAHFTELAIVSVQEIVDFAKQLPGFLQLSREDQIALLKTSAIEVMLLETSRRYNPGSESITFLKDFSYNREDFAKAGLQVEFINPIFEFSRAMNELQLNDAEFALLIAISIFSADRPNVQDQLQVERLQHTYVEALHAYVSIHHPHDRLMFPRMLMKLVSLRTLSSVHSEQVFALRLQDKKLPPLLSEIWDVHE
LXR α LBD protein, sequence (Q13133 209-447): as above

Compound | Cell LXRα efficacy [1] | EC50 [1] [nM] | Cell LXRβ efficacy [2, 8] | IC50 [2, 9] [nM] | Ki ([3]; read-out: LXRβ Binding Ki) [nM] | EC50 [4] [nM] | FRET LXRα efficacy [4] [%] | Cell LXRβ efficacy ([5]; agonist mode) | EC50 [5, 10] [nM] | Cell LXRα efficacy [6] | IC50 [6] [nM] | FRET LXRβ efficacy ([7]; agonist mode) | EC50 ([7]; agonist mode) [nM] | EC50 ([1]; agonist mode) [nM] | IC50 [2] [nM] | Ki [3] [nM] | EC50 [5] [nM] | IC50 [6, 8] [nM] | EC50 [7] [nM]
CS(=O)(=O)c1cc(N2CCN(C[C@H]3CC[C@@H](C(F)(F)F)CC3)[C@@H](c3ccccc3)C2)ccc1C(N)=O (single isomer, unassigned) [17-39] | 1648 (67) % | 1650 | 135% | 2660 | 107 | 267 | 55 | 26% | 630 | 9842 (125) % | 9840 | 61% | 63 | – | – | – | – | – | –
C[C@]1(c2ccccc2)CN(c2cccc(S(C)(=O)=O)c2)CCN1Cc1ccc(C(F)(F)F)cc1 (single isomer, unassigned) [46-21] | 2026 (20) % | – | 537 (75) % | – | – | 3000 | 24 | 541 (12) % | – | – | – | – | – | 2030 | 537 | 85 | 541 | > 10000 | > 50000
CS(=O)(=O)c1cccc(N2CCN(Cc3ccc(C(F)(F)F)c(F)c3)[C@@H](c3ccccc3)C2)c1 (single isomer, unassigned) [46-26] | 1479 (62) % | – | 6798 (54) % | – | 58 | 2860 | 59 | 676 (62) % | – | 7585 (36) % | – | 411 (73) % | – | 1480 | 6800 | – | 676 | 7580 | 411
C[C@]1(c2ccccc2)CN(c2cccc(S(C)(=O)=O)c2)CCN1Cc1ccc(C(F)(F)F)c(Cl)c1 (single isomer, unassigned) [46-34] | 2082 (24) % | – | 688 (70) % | – | 32 | 862 | 40 | 587 (10) % | – | 7451 (87) % | – | – | – | 2080 | 688 | – | 587 | 7450 | 257
CC(C)[C@H]1CC[C@H](CN2CCN(c3cccc(S(C)(=O)=O)c3)C[C@@H]2c2ccccc2)CC1 (single isomer, unassigned) [48-15] | 1658 (31) % | 1660 | 60% | 455 | – | 2310 | 40 | 21% | 564 | – | > 10000 | 32% | 197 | – | – | – | – | – | –
CS(=O)(=O)c1cccc(N2CCN(C[C@H]3CC[C@H](C(F)(F)F)CC3)[C@@H](c3ccccc3)C2)c1 (single isomer, unassigned) [48-33] | 1245 (49) % | 1240 | 52% | 583 | – | 4870 | 74 | 32% | 466 | 5224 (46) % | 5220 | 82% | 375 | – | – | – | – | – | –
NS(=O)(=O)c1cccc(N2CCN(C[C@H]3CC[C@@H](C(F)(F)F)CC3)[C@@H](c3ccccc3)C2)c1 (single isomer, unassigned) [48-35] | 351 (62) % | 351 | 38% | 317 | – | 416 | 52 | 27% | 120 | 7574 (100) % | 7570 | 22% | 46 | – | – | – | – | – | –
benzyl (R)-2-isobutyl-4-(3-(methylsulfonyl)phenyl)piperazine-1-carboxylate [1-13] | 2139 (16) % | 2140 | 132% | 756 | – | 586 | 37 | 7% | 265 | 4105 (131) % | 4100 | 52% | 36 | – | – | – | – | – | –
